# Experimental data as given in patent US11319322B2, “Substituted aryl ether compound, preparation method thereof, pharmaceutical composition and use thereof” (Xiamen University, priority 2017, dated 2022).
# What was measured:
# CCDC6-RET-BaF3 = biological target: T1, CCDC6-RET-BaF3 (Homo sapiens, UniProt P07949); experiment: Growth inhibition of CCDC6-RET-BaF3 cells stably transfected with kinase (MTS); format: cell-based; conditions: 48 h, read-out: CCDC6-RET (IC50/nM)
# T1 construct: fused on or other part: Q16204 (Coiled-coil domain-containing protein 6)
# Summary of the method: (§1)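 IC50 derived from growth inhibition by MTS absorbance at 490 nm after 48 h compound exposure (top 10 μM, 1:3 steps, 8 points, 0.1% DMSO) of 2×10^4 RET-fusion (CCDC6-RET, KIF5B-RET) or wild-type BaF3 cells per well, in triplicate.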
# KIF5B-RET-BaF3 = biological target: T2, KIF5B-RET-BaF3 (Homo sapiens, UniProt P07949); experiment: Growth inhibition of KIF5B-RET-BaF3 cells stably transfected with kinase (MTS); format: cell-based; conditions: 48 h, read-out: KIF5B-RET (IC50/nM)
# T2 construct: fused on or other part: P33176 (Kinesin-1 heavy chain)
# Summary of the method: as §1
# T2 sequence (P07949 whole entry, change not shown, the tested form may be a part): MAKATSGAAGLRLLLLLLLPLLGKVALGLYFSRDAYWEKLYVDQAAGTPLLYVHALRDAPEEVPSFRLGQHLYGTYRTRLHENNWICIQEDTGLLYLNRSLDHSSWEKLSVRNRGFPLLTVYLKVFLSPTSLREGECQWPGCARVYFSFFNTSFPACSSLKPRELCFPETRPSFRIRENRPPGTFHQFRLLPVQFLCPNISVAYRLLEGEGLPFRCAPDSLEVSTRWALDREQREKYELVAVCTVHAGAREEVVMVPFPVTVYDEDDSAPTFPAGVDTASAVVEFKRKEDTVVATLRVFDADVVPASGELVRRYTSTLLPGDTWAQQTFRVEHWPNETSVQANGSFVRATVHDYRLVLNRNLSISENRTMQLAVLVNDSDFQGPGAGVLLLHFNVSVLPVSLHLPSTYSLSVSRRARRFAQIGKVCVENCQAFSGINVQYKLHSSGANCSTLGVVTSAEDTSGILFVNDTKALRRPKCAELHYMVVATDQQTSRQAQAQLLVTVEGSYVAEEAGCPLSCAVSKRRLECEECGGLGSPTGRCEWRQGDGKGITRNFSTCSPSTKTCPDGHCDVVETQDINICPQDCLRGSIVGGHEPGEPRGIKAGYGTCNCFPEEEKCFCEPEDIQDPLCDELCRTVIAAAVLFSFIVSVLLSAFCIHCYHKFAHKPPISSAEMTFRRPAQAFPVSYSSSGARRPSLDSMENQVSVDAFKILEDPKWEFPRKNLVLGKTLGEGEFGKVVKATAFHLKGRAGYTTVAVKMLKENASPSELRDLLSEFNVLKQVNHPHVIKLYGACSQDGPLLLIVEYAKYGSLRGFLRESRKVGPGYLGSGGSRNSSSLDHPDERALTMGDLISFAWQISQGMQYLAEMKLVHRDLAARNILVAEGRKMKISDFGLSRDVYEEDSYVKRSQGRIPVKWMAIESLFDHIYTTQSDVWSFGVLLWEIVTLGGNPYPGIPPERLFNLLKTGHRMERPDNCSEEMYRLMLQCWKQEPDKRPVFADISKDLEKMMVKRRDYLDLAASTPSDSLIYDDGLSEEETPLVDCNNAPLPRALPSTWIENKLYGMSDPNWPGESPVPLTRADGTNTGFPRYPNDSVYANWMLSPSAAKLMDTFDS
# T1 sequence (P07949 whole entry, change not shown, the tested form may be a part): as above
SMILES,GI50 (CCDC6-RET-BaF3) [nM],GI50 (KIF5B-RET-BaF3) [nM]
CCC(=O)NCC1CCN(c2ccc(NC(=O)c3ccc(C)c(Oc4nc(-c5cccnc5)nc5cc[nH]c45)c3)cc2C(F)(F)F)CC1 [III-v-12],149,191
Cc1ccc(NC(=O)c2cccc(C(F)(F)F)c2)cc1Oc1nc(-c2ccncc2)nc2nn(C)cc12 [IV-b-2],5870,4170
Cc1ccc(Oc2nc(-c3ccncc3)nc3nn(C)cc23)cc1NC(=O)c1cccc(C(F)(F)F)c1 [IV-c-2],1680,2840
Cc1ccc(Oc2cc(-c3cn[nH]c3)nc3[nH]ccc23)cc1C(=O)Nc1ccc(CN2CCN(C)CC2)c(C(F)(F)F)c1 [V-n-12],566,673
Cc1ccc(Oc2cc(-c3ccncc3)nc3c2ccn3C)cc1C(=O)Nc1ccc(CN2CCN(C)CC2)c(C(F)(F)F)c1 [V-n-16],472,388
Cc1ccc(Oc2cc(-c3ccncc3)nc3[nH]ccc23)cc1C(=O)Nc1cc(CN2CCN(C)CC2)cc(C(F)(F)F)c1 [V-r-1],2960,2810
Cc1ccc(NC(=O)c2ccc(CN3CCN(C)CC3)c(C(F)(F)F)c2)cc1Oc1nc(-c2ccncc2)nc2ccsc12 [VI-i-2],5700,7420
CN1CCN(Cc2ccc(C(=O)Nc3cccc(Oc4cc(-c5ccncc5)nc5sccc45)c3)cc2C(F)(F)F)CC1 [VII-h-2],637,1080
Cc1ccc(NC(=O)c2ccc(CN3CCN(C)CC3)c(C(F)(F)F)c2)cc1Oc1cc(-c2ccncc2)nc2sccc12 [VII-i-2],1360,1330
Cc1ccc(Oc2cc(-c3cccnc3)nc3sccc23)cc1NC(=O)c1ccc(CN2CCN(C)CC2)c(C(F)(F)F)c1 [VII-j-1],811,1280
Cc1ccc(Oc2cc(-c3ccncc3)nc3sccc23)cc1NC(=O)c1ccc(CN2CCN(C)CC2)c(C(F)(F)F)c1 [VII-j-2],95.6,189
CN1CCN(Cc2ccc(NC(=O)c3cccc(Oc4cc(-c5cccnc5)nc5sccc45)c3)cc2C(F)(F)F)CC1 [VII-l-1],1020,1350
CN1CCN(Cc2ccc(NC(=O)c3cccc(Oc4cc(-c5ccncc5)nc5sccc45)c3)cc2C(F)(F)F)CC1 [VII-l-2],215,315
Cc1ccc(Oc2cc(-c3cccnc3)nc3sccc23)cc1C(=O)Nc1ccc(CN2CCN(C)CC2)c(C(F)(F)F)c1 [VII-n-1],1690,1780
Cc1ccc(Oc2cc(-c3ccncc3)nc3sccc23)cc1C(=O)Nc1ccc(CN2CCN(C)CC2)c(C(F)(F)F)c1 [VII-n-2],221,405

# The next lines start with the values.
GI50 (CCDC6-RET-BaF3) [nM],GI50 (KIF5B-RET-BaF3) [nM],SMILES
4150,3540,Cc1ccc(Oc2nc(-c3ccccc3)nc3nn(C)cc23)cc1C(=O)Nc1ccc(CN2CCN(C)CC2)c(C(F)(F)F)c1 [IV-n-3]
3900,1710,Cc1ccc(Oc2nc(-c3cccc(Cl)c3)nc3nn(C)cc23)cc1C(=O)Nc1ccc(CN2CCN(C)CC2)c(C(F)(F)F)c1 [IV-n-4]
2960,2320,Cc1ccc(Oc2nc(-c3ccc(Cl)cc3)nc3nn(C)cc23)cc1C(=O)Nc1ccc(CN2CCN(C)CC2)c(C(F)(F)F)c1 [IV-n-5]
4310,4230,Cc1ccc(Oc2nc(-c3cccc(O)c3)nc3nn(C)cc23)cc1C(=O)Nc1ccc(CN2CCN(C)CC2)c(C(F)(F)F)c1 [IV-n-6]
2810,3940,Cc1ccc(Oc2nc(-c3ccc(O)cc3)nc3nn(C)cc23)cc1C(=O)Nc1ccc(CN2CCN(C)CC2)c(C(F)(F)F)c1 [IV-n-7]
2090,1620,Cc1ccc(Oc2nc(-c3cccc(N)c3)nc3nn(C)cc23)cc1C(=O)Nc1ccc(CN2CCN(C)CC2)c(C(F)(F)F)c1 [IV-n-8]
1830,1570,Cc1ccc(Oc2nc(-c3ccc(N)cc3)nc3nn(C)cc23)cc1C(=O)Nc1ccc(CN2CCN(C)CC2)c(C(F)(F)F)c1 [IV-n-9]
2160,1840,Cc1ccc(Oc2nc(-c3ccoc3)nc3nn(C)cc23)cc1C(=O)Nc1ccc(CN2CCN(C)CC2)c(C(F)(F)F)c1 [IV-n-10]
5220,4210,Cc1ccc(Oc2nc(-c3ccsc3)nc3nn(C)cc23)cc1C(=O)Nc1ccc(CN2CCN(C)CC2)c(C(F)(F)F)c1 [IV-n-11]
1980,1720,CN1CCN(Cc2ccc(NC(=O)c3cc(Oc4nc(-c5cccnc5)nc5nn(C)cc45)ccc3Cl)cc2C(F)(F)F)CC1 [IV-o-1]
88.6,12.1,CN1CCN(Cc2ccc(NC(=O)c3cc(Oc4nc(-c5ccncc5)nc5nn(C)cc45)ccc3Cl)cc2C(F)(F)F)CC1 [IV-o-2]
4310,4180,CN1CCN(Cc2ccc(NC(=O)c3cc(Oc4nc(-c5ccccc5)nc5nn(C)cc45)ccc3Cl)cc2C(F)(F)F)CC1 [IV-o-3]
4280,3110,CN1CCN(Cc2ccc(NC(=O)c3cc(Oc4nc(-c5cccc(Cl)c5)nc5nn(C)cc45)ccc3Cl)cc2C(F)(F)F)CC1 [IV-o-4]
4090,3390,CN1CCN(Cc2ccc(NC(=O)c3cc(Oc4nc(-c5ccc(Cl)cc5)nc5nn(C)cc45)ccc3Cl)cc2C(F)(F)F)CC1 [IV-o-5]
4020,3400,CN1CCN(Cc2ccc(NC(=O)c3cc(Oc4nc(-c5cccc(O)c5)nc5nn(C)cc45)ccc3Cl)cc2C(F)(F)F)CC1 [IV-o-6]
1510,1610,CN1CCN(Cc2ccc(NC(=O)c3cc(Oc4nc(-c5ccc(O)cc5)nc5nn(C)cc45)ccc3Cl)cc2C(F)(F)F)CC1 [IV-o-7]
172,152,CN1CCN(Cc2ccc(NC(=O)c3cc(Oc4nc(-c5cccc(N)c5)nc5nn(C)cc45)ccc3Cl)cc2C(F)(F)F)CC1 [IV-o-8]
4810,4360,CN1CCN(Cc2ccc(NC(=O)c3cc(Oc4nc(-c5ccc(N)cc5)nc5nn(C)cc45)ccc3Cl)cc2C(F)(F)F)CC1 [IV-o-9]
4290,3760,CN1CCN(Cc2ccc(NC(=O)c3cc(Oc4nc(-c5ccoc5)nc5nn(C)cc45)ccc3Cl)cc2C(F)(F)F)CC1 [IV-o-10]
3030,1620,CN1CCN(Cc2ccc(NC(=O)c3cc(Oc4nc(-c5ccsc5)nc5nn(C)cc45)ccc3Cl)cc2C(F)(F)F)CC1 [IV-o-11]
1570,1630,CN1CCN(Cc2ccc(NC(=O)c3cc(Oc4cc(-c5cccnc5)nc5sccc45)ccc3Cl)cc2C(F)(F)F)CC1 [VII-o-1]
326,499,CN1CCN(Cc2ccc(NC(=O)c3cc(Oc4cc(-c5ccncc5)nc5sccc45)ccc3Cl)cc2C(F)(F)F)CC1 [VII-o-2]
